Assay results as given in patent publication US20090131302A1, “Transient receptor potential vanilloid 1 and uses thereof” (priority 2007, published 2009).

Assays:
[1] = system: colon of adult rats; conditions: 1 ml of 5% into descending colon at 8 weeks; tested after 4 weeks; 50-80 mm Hg; vs saline
Protocol: For neonatal sensitization, rats were obtained as litters of 4 days old pups. […] To treat neonatal rats with capsaicin, ten day old rat pups received an infusion of 0.2 mls of 50 mg/ml capsaicin or 0.2 mls vehicle: 10% ethanol, 10% Tween 20, 80% saline or were left unmanipulated. Visceral sensitivity and inflammatory parameters were measured in these rats between 8 and 12 weeks of age. […] After 4 weeks, rats were tested for sensitivity to colorectal distention.
The abdominal withdrawal reflex represents a characteristic set of behaviors produced by involuntary motor reflexes that are activated by colorectal distention. Visceral hypersensitivity was measured by grading the response of rats to colorectal distention as previously described.^11 Briefly, under mild sedation with 1% Brevital (Eli Lily & Co Indianapolis, Ind.) 25 mg/kg i.p.), a flexible balloon (5 cm) constructed from a surgical glove finger attached to a tygon tubing was inserted 8 cm into the descending colon and rectum via the anus and held in place by taping the tubing to the tail. Rats were placed in small Lucite cubicles (20×8×8 cm) (Bioengineering Department, UTMB) and were allowed to adapt for 30 minutes. CRD was performed by rapidly inflating the balloon to constant pressure. Pressure was measured using a sphygmomanometer connected to a pressure transducer. […]

[2] = system: MAPK; conditions: pups one hour after infusion
Protocol: To determine whether acetic acid infusion of the colons of 10 days old pups activated MAPK in DRG containing soma of colon afferents, combined lumbar/sacral (LS) and thoracolumbar (TL) DRG from 4 pups/treatment group were assayed for p-p38 or ERK (p-p42/p-p44) content by western blot 1 hour after acetic acid infusion. Cervical (CE) DRG from the same animals were examined as an internal control for specificity of stimulation.

[3] = system: colon of P10 rats; conditions: 0.5% into colon at P10, vs saline
Protocol: To treat neonatal rats with capsaicin, ten day old rat pups received an infusion of 0.2 mls of 50 mg/ml capsaicin or 0.2 mls vehicle: 10% ethanol, 10% Tween 20, 80% saline or were left unmanipulated. Visceral sensitivity and inflammatory parameters were measured in these rats between 8 and 12 weeks of age. […] After 4 weeks, rats were tested for sensitivity to colorectal distention.
Visceral hypersensitivity was measured by grading the response of rats to colorectal distention as previously described.^11 Briefly, under mild sedation with 1% Brevital (Eli Lily & Co Indianapolis, Ind.) 25 mg/kg i.p.), a flexible balloon (5 cm) constructed from a surgical glove finger attached to a tygon tubing was inserted 8 cm into the descending colon and rectum via the anus and held in place by taping the tubing to the tail. […] Pressure was measured using a sphygmomanometer connected to a pressure transducer. […] Behavioral responses to colorectal distention were measured by visual observation of the abdominal withdrawal reflex by blinded observer and the assignment of an AWR score as follows: 1=Normal behavior without response 2=Contraction of abdominal muscles; 3=Lifting of abdominal wall; 4=Body arching and lifting of pelvic structures. […]
Data is expressed as mean+/−standard error of the mean (SE).

[4] = system: colon; conditions: rat, in vivo
Protocol: Colons were divided into proximal, middle and distal segments; portions of each segment were placed in 10% buffered formalin and portions were frozen in liquid nitrogen. Haematoxilin & Eosin stained parafin sections were scored for inflammation by a pathologist as described.^21 Myeloperoxidase (MPO) assays were performed as described.^22 Protein was measured by the BCA method (Pierce, Rockford, Ill.). Activity was expressed as the change in absorbance/min/mg protein. Cytokine levels were measured in colon extracts using the Biorad Bioplex assay procedure and normalized to protein.
To rule out the possibility that the sensitizing effects of neonatal acetic acid exposure were due to inflammation/injury of the colon, the colons of P10 pups were examined.
To determine whether persistent hypersensitivity achieved in neonatal acetic acid treated rats was due to the development of a chronic colitis in adult, H&E stained sections of the colons of 8 weeks old adult rats were examined for histopathological signs of inflammation, myoloperoxidase (MPO) activity and inflammatory cytokine levels. […] Since mast cells can affect both motility and sensitivity, mast cells in proximal, middle and distal colon were counted.

[5] = system: TRPV1
Protocol: Tissues for western blot or RNA extraction were immediately frozen on dry ice and were stored at −80 until further analysis. Tissues were homogenized in extract buffer; 1% NP40, 10% glycerol, 20 mM Tris HCl […], 100 mM NaCl, 50 mM NaF, 2 mM EDTA, 1 mM EGTA, 25 mM b-glycerophosphate, 2 mM sodium pyrophosphate, 1 mM sodium orthovanadate, 1 mM phenylmethylsulfonyl fluoride and Protease Inhibitor Cocktail, 1/100 (Sigma). Proteins were resolved on 7.5% SDS-PAGE gels, transferred to PVDF membranes (BioRad), and incubated with an anti-TRPV1 antibody (PC420, Invitrogen) at 1/500. Bound antibodies were detected by ECL kit (Amersham Pharmacia Biotech, Piscataway, N.J.). The membranes were exposed to X-ray films and subsequently stripped and re-probed with a b-III-tubulin antibody (1/1000, Promega). Films were converted to TIFF image files using a HP scanner, and the TRPV1 and b-III-tubulin bands were quantified using OptiQuant software (Packard). Data was expressed as the ratio of TRPV1 to b-III-tubulin band intensity.
RNA was extracted from frozen DRG using Triozol (Invitrogen). Starting with […] of RNA, two-step quantitative RT-PCR was performed using Applied Biosystems reagents and kits. The following forward and reverse primer and probe sequences were used: TRPV1: […] (SEQ ID NO: 2), […] (SEQ ID NO: 3); b-III-tubulin: […] (SEQ ID NO: 4), […] (SEQ ID NO: 5), […] (SEQ ID NO: 6). TAQMAN PCR was performed on an Applied Biosystems 5700. Relative changes in TRPV1 mRNA levels were calculated by the DDCt method using b-III-tubulin as a normalizer. No RT reactions were performed as controls.
The lipid soluble fluorescent dye, DiI (1,1′-dioleyl-3,3,3′,3-tetramethylindocarbocyanine methanesulfonate, Invitrogen), 25 mg in 0.5 ml methanol, was injected in 2 μl volumes at 8-10 sites on the exposed colon from the level of the bladder to 6 cm oral. After one to two weeks, rats were perfused transcardially with 150 ml phosphate buffered saline (PBS) followed by 400 ml ice cold 4% paraformaldehyde in PBS. Dorsal root ganglia, T12 to S2 were removed and were post-fixed one hour in PFA and cryoprotected overnight in 20% sucrose in PBS. 10 micron sections on plus slides were incubated sequentially with TRPV1 antibody (PC420, Invitrogen, 1/200) and then with anti-rabbit Alexa Fluor 488 (Invitrogen, 1/200). Sections were viewed using a BX60 Olympus microscope equipped with filter cubes appropriate for DiI (Rhodamine filter) and appropriate band pass and barrier filter for Alexa-488. Images were captured and were analyzed using Metaview software. To ensure that a neuron is counted only once, serial sections were placed on consecutive slides with at least 50 microns between sections on the same slide.
To determine whether TRPV1 expression was altered in adult rats that were sensitized with acetic acid as neonates, TRPV1 expression in DRG containing colon afferents and in the spinal cord was measured.
TRPV1 and BDNF mRNA expression was measured in S1 DRG isolated from adult rats that were treated with acetic acid or saline as neonates by quantitative RT-PCR. […] To increase the sensitivity and specificity of this gene expression assay, measurements will be made in colon afferent neurons identified by uptake of the retrograde label fluorogold and isolated by laser capture microdissection (LCM) (FIG. 11).

[6] = system: colon DRG neurons
Protocol: To determine whether the sensitivity of colon DRG neurons was altered in eight weeks old rats in this model, action potential threshold (rheobase) and firing frequency of acutely dissociated lumbar/sacral (LS), and thoracolumbar (TL) colon DRG neurons, identified by the presence of the retrograde label DiI, were measured in current clamp experiments.

[7] = adult rats sensitized as neonates vs controls
[8] = quantitative RT-PCR, vs P10 saline

CC(=O)O [acetic acid]
AWR grades in response to colorectal distention [1]: No significant differences
p-p38 in TL or CE DRG [2]: No large changes
p-p42 in LS DRG [2]: no change
p-p44 in LS DRG [2]: seven-fold increase
p-ERK increase in TL DRG ([2]; also seen with saline): 3-5 fold
p-p38 in LS DRG ([2]; vs saline and unmanipulated): three-fold increase
EMG activity in response to graded colorectal distention ([3]; adult, 40 and 60 mm Hg): significantly higher
AWR scores in response to colorectal distention ([3]; tested at 8 weeks): higher mean AWR scores at all distention pressures
IFN-g in proximal colon, relative to saline [4]: 1.5 fold
MPO activity in proximal, middle and distal colon [4]: no significant increases in activity
MPO values in colon of pups [4]: not significantly different
histology of colon of pups [4]: No histological signs of inflammation or tissue destruction
histopathological examination of adult colon [4]: no evidence of inflammation or abnormalities in structure
levels of pro-inflammatory cytokines (IL-1b, IL-1a, IL-2, IL-6, TNF-a, IFN-g) [4]: no significant differences
mast cell counts, distal colon [4]: 9.3 SE 4.1 number of mast cells per high-powered field
mast cell counts, middle colon [4]: 7.7 SE 1.2 number of mast cells per high-powered field
mast cell counts, proximal colon [4]: 6.3 SE 3.4 number of mast cells per high-powered field
TRPV1 protein expression in the spinal cord ([5]; adult rats sensitized as neonates): No change
TRPV1 mRNA in TL DRG [5, 7]: no change
TRPV1 mRNA increase in LS DRG [5, 7]: 1.9 fold
TRPV1 protein expression in whole DRG extracts ([5]; both TL and LS DRG, adult rats sensitized as neonates): significantly increased
colon DRG neurons (DiI) expressing TRPV1 immunoreactivity, LS DRG ([5]; control 38.8%): 54.0%
colon DRG neurons (DiI) expressing TRPV1 immunoreactivity, TL DRG ([5]; control 40.6%): 67.3%
BDNF mRNA expression increase in S1 DRG [5, 8]: 1.9 fold
TRPV1 mRNA expression increase in S1 DRG [5, 8]: 1.9 fold
average rheobase, TL colon DRG neurons ([6]; 8 weeks old rats treated at P10, control 0.47): 0.29 nA
average rheobase, LS colon DRG neurons ([6]; 8 weeks old rats treated at P10, control 0.56): 0.21 nA
number of action potentials elicited by current injection at 2x the rheobase, LS neurons ([6]; control 1.2): 1.8
